Among the test systems are A549 NSCLC; SF-268 CNS; SNB-75 CNS; RPMI-8226 leukemia; SK-MEL-28 melanoma; SW-620 colon; UO-31 renal; SF-539 CNS; SF-295 CNS.
Experiment in all cases: DTP human tumour cell line panel, 48 h

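These data come from cells grown in 96-well plates and exposed to compound for 48 hours at five concentrations. GI50 marks 50% less growth. TGI marks complete inhibition of growth.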 Some results are limits rather than exact numbers.

As a reminder, the TGI is the concentration giving total growth inhibition. Higher therefore signals lower sensitivity of the cells. In general, GI50 refers to the concentration that inhibits growth by half.

Turning to `Nc1ccc(-c2nc3ccccc3s2)cc1C(F)(F)F`, the TGI is 37.4 µM in the assay on A549 NSCLC; 30.4 µM in the assay on SF-268 CNS; 27.9 µM in the assay on SNB-75 CNS; 44.6 µM with RPMI-8226 leukemia; 33.9 µM in the assay on SK-MEL-28 melanoma; 35.3 µM with SW-620 colon. In addition, the values for the TGI in the assay on UO-31 renal, in the assay with SF-539 CNS and in the assay with SF-295 CNS were 29.4 µM, 37.7 µM and 32.1 µM, respectively.
For the compound `N=C(N)c1ccc(-c2ccc(-c3cccs3)s2)cc1`, the GI50 was 1.87 µM with SF-268 CNS; 1.69 µM in the assay on SNB-75 CNS; 0.267 µM in the assay with RPMI-8226 leukemia; 1.63 µM in the assay on SK-MEL-28 melanoma; 0.978 µM in the assay on UO-31 renal; 1.65 µM with SF-539 CNS. For the same compound, the TGI in the assay with SF-268 CNS is 4.41 µM; in the assay with SNB-75 CNS, 3.17 µM; with RPMI-8226 leukemia, 2.12 µM; in the assay on SK-MEL-28 melanoma, 3.07 µM; in the assay on UO-31 renal, 2.48 µM; with SF-539 CNS it was 3.09 µM.
As to `N#CC(N=Nc1ccc(Cl)cc1)c1nc2ccccc2o1` (stereo not given), the TGI was > 100 µM in the assay with A549 NSCLC; > 100 µM in the assay with SF-268 CNS; > 100 µM with RPMI-8226 leukemia; > 100 µM in the assay with SK-MEL-28 melanoma; > 100 µM with UO-31 renal; 56.2 µM in the assay with SF-539 CNS. Besides, the TGI with SF-295 CNS is 67.9 µM.
On to `CCOC(=O)C1(C(=O)OCC)COS(=O)OC1`, for which the TGI is > 100 µM in the assay with A549 NSCLC; > 100 µM with SNB-75 CNS; 95.7 µM with SK-MEL-28 melanoma; 36.1 µM in the assay with SW-620 colon; > 100 µM in the assay on UO-31 renal; > 100 µM with SF-295 CNS.
As for `Cn1ccnc1C(O)(c1nccn1C)c1nccn1C`, the TGI in the assay on SF-268 CNS, in the assay on SNB-75 CNS, with SK-MEL-28 melanoma, with SW-620 colon, in the assay on UO-31 renal and in the assay with SF-295 CNS was > 100 µM throughout.
As to `O=C(NCCCN(CCCCN(CCCNC(=O)C(F)(F)F)Cc1ccc2ccccc2c1)Cc1ccc2ccccc2c1)C(F)(F)F`, the TGI in the assay with A549 NSCLC was > 100 µM; in the assay with SF-268 CNS, > 100 µM; with SNB-75 CNS it was > 100 µM; in the assay on RPMI-8226 leukemia, 7.15 µM; in the assay with SK-MEL-28 melanoma, 5.88 µM; with SW-620 colon, > 100 µM. Besides, the TGI in the assay with UO-31 renal, with SF-539 CNS and in the assay on SF-295 CNS was > 100 µM in each case.
With `CC1=C2C(=C[C@H]3[C@]4(C)CCCC(C)(C)[C@H]4CC[C@]34O[C@H]24)OC1=O`, the TGI with A549 NSCLC, in the assay with SF-268 CNS, in the assay on SNB-75 CNS, in the assay with RPMI-8226 leukemia, in the assay with SK-MEL-28 melanoma and in the assay on SW-620 colon was > 100 µM throughout. The TGI in the assay with UO-31 renal and in the assay with SF-295 CNS was > 100 µM each time.
For `COC(=O)CN1c2nc(C#N)c(C#N)nc2N(CC(=O)OC)c2nc(C#N)c(C#N)nc21`, the TGI in the assay with A549 NSCLC is > 82.8 µM; in the assay with SF-268 CNS, 11.4 µM; in the assay on SNB-75 CNS, 30.4 µM; with RPMI-8226 leukemia it was > 100 µM; in the assay on SK-MEL-28 melanoma it was > 100 µM; in the assay with SW-620 colon, > 25.9 µM. Also, the TGI with UO-31 renal was > 25.6 µM; in the assay with SF-539 CNS, 24.2 µM; in the assay with SF-295 CNS, 43.5 µM.
For the compound `NC(CC1=CS(=O)(=O)c2ccc(Cl)cc21)C(=O)O` (stereo not given), the TGI in the assay with A549 NSCLC, with SF-268 CNS, in the assay on SNB-75 CNS, with RPMI-8226 leukemia, with SK-MEL-28 melanoma and with SW-620 colon was > 100 µM in each case. The TGI in the assay on SF-539 CNS and in the assay on SF-295 CNS was > 100 µM each time.
Regarding `CCOC(=O)c1c(-c2ccccc2)c(-c2ccccc2)cn1C`, the TGI with A549 NSCLC, in the assay with SF-268 CNS, in the assay with SNB-75 CNS, in the assay with UO-31 renal, in the assay with SF-539 CNS and with SF-295 CNS was > 10 µM each time.
As to `CCCCn1cnc2c(c(CC#N)nn2-c2ccccc2)c1=N`, the TGI is > 100 µM in the assay on A549 NSCLC; > 100 µM in the assay with SF-268 CNS; > 100 µM with SNB-75 CNS; 73.4 µM in the assay on RPMI-8226 leukemia; > 100 µM with SK-MEL-28 melanoma; > 100 µM with SW-620 colon. Also, the TGI in the assay on UO-31 renal and in the assay with SF-295 CNS was > 100 µM throughout.
With `Cc1ccc(CC[P+](=O)CCc2ccc(C)nc2)cn1`, the TGI in the assay with SF-268 CNS, in the assay with RPMI-8226 leukemia, in the assay with SK-MEL-28 melanoma, in the assay on SW-620 colon, with SF-539 CNS and in the assay on SF-295 CNS was > 100 µM throughout.
With `C[C@@H](Cl)[C@H]1CCCN(Cc2ccc(Br)cc2)C1`, the TGI with A549 NSCLC, with SF-268 CNS, in the assay with SNB-75 CNS, in the assay on RPMI-8226 leukemia, in the assay on SK-MEL-28 melanoma and in the assay with SW-620 colon was > 12.5 µM in each case. The total growth inhibition concentration (TGI) in the assay on UO-31 renal, in the assay on SF-539 CNS and with SF-295 CNS was > 12.5 µM throughout.
In the case of `C=C1c2cc3c(cc2CC12Cc1cc4c(cc1C2=O)CCC4)CCC3` (stereo not given), the TGI with A549 NSCLC, in the assay with SF-268 CNS, in the assay with SNB-75 CNS, in the assay with RPMI-8226 leukemia, in the assay on SK-MEL-28 melanoma and in the assay with SW-620 colon was > 100 µM each time. Also, the TGI in the assay on UO-31 renal, with SF-539 CNS and with SF-295 CNS was > 100 µM in each case.
`O=c1ccn(C2OC(CO)C(P(=O)(O)O)C2O)c(=O)[nH]1` (stereo not given): the TGI with A549 NSCLC, with SF-268 CNS, in the assay with SNB-75 CNS, in the assay with RPMI-8226 leukemia, in the assay on SK-MEL-28 melanoma and in the assay on SW-620 colon was > 100 µM throughout. In addition, the TGI in the assay with UO-31 renal, in the assay with SF-539 CNS and in the assay with SF-295 CNS was > 100 µM in each case.
Turning to `C/C1=C\CC[C@@]2(C)O[C@@H]2C[C@@H](C2(C)CO2)CC/C(C)=C/CC1` (stereo not given in full), the TGI in the assay on A549 NSCLC was 36.5 µM; in the assay on SF-268 CNS, 33.9 µM; with SNB-75 CNS, 93.7 µM; in the assay on RPMI-8226 leukemia, > 100 µM; in the assay on SK-MEL-28 melanoma, 57.6 µM; with SW-620 colon, > 100 µM. In addition, the TGI in the assay on UO-31 renal is 55.9 µM; with SF-539 CNS, 46 µM; in the assay on SF-295 CNS, 51 µM.

The record behind these values is PubChem BioAssay (NCI).
